{"source": "patent US8912360B2", "about": "“Methods for preparing ritodrine hydrochloride” (Lundbeck Pharmaceuticals Italy S.p.A., priority 2010, dated 2014)", "assay": "Stability / hygroscopicity: water content through Karl Fischer titration after storage", "type": "physicochemical", "conditions": "for hygroscopicity: hydrochloride", "protocol": "The water content was determined through Karl Fischer (KF) titration.\nRitodrine hydrochloride Form I is kept at 40° C. and a relative humidity of 75% for 24 hours. The water content measured through Karl Fischer titration is 0.5% (weight/weight).\nRitodrine hydrochloride Form II is placed in a double polyethylene bag with a desiccant (silica gel) kept in standard conditions for storing active ingredients. After some months the water content of such Ritodrine hydrochloride measured through Karl Fischer titration is 2.2% (weight/weight)."}
{"smiles": "C[C@@H](NCCc1ccc(O)cc1)[C@@H](O)c1ccc(O)cc1.Cl", "note": "(racemic) [Ritodrine hydrochloride Form I, 4-((1RS,2SR)-1-hydroxy-2-{[2-(4-hydroxyphenyl)ethyl]amino}propyl)phenol hydrochloride]", "values": [{"measurement": "water absorption", "setting": "exposed to a relative humidity of 75%", "value": "does not absorb water"}, {"measurement": "hygroscopicity", "value": "non-hygroscopic"}, {"measurement": "water content measured through Karl Fischer titration", "setting": "kept at 40° C. and a relative humidity of 75% for 24 hours", "value": "0.5 % (weight/weight)"}]}
{"smiles": "C[C@@H](NCCc1ccc(O)cc1)[C@@H](O)c1ccc(O)cc1.Cl", "note": "(racemic) [Ritodrine hydrochloride Form II, 4-((1RS,2SR)-1-hydroxy-2-{[2-(4-hydroxyphenyl)ethyl]amino}propyl)phenol hydrochloride]", "values": [{"measurement": "water content measured through Karl Fischer titration", "setting": "double polyethylene bag with a desiccant (silica gel), standard conditions for storing active ingredients, after some months", "value": "2.2 % (weight/weight)"}, {"measurement": "hygroscopicity", "value": "hygroscopic"}, {"measurement": "water absorption", "setting": "not exposed directly to a humid environment, normal controlled storing conditions", "value": "absorbs water"}]}
